For data set [1] the following is noted: cited from earlier work.
For data set [2] the following is noted: cited from earlier work; for solubility in the infusion solution: Jevtana infusion solution.
In a further data set the test system is human plasma proteins. To be noted: cited from earlier work.
The conditions of data set [3]: in blood; cited from earlier work.
For data set [4] the following is noted: after irinotecan; cited from earlier work.
The subject of data set [5] is topoisomerase I purified from human and rodent tumor cell lines. To be noted: more potent than irinotecan; cited from earlier work.
For data set [6], the system named is PANC-1 human pancreatic tumor xenografts. As to the kind of experiment: PANC-1 xenograft model. Format: in vivo, athymic nude mice. To be noted: PANC-1, 28 mg/kg once every third day for three treatments. How it is done:
The anti-tumor efficacy studies of LBI-1103 in the MDA-MB-468 xenograft model as compared to Taxotere® and in the PANC-1 xenograft model as compared to Taxotere® and Gemcytabine were completed recently. The controls and LBI-1103 were injected intravenously once every other day for three treatments except for PANC-1 xenograft animals, where they were treated with Gemcitabine once every third day for three treatments.
In the PANC-1 xenograft models treated with LBI-1103, Taxotere® and Gemcitabine, a significant reduction in tumor weight was observed after the first day of dosing and this trend continued till the end of the study (FIG. 19).

Values after ≈ are worked out from the molar mass of the structure shown. Where two headings read alike, the source gives them in different places.

`CC(=O)O[C@@]12CO[C@@H]1C[C@H](O)[C@@]1(C)C(=O)[C@H](O)C3=C(C)[C@@H](OC(=O)[C@H](O)[C@@H](NC(=O)OC(C)(C)C)c4ccccc4)C[C@@](O)([C@@H](OC(=O)c4ccccc4)[C@H]21)C3(C)C` [docetaxel]: the solubility in water entry in data set [1] is recorded as “about 14 mg/L”.
With `CO[C@H]1C(=O)[C@]2(C)[C@@H](OC)C[C@H]3OC[C@@]3(OC(C)=O)[C@H]2[C@H](OC(=O)c2ccccc2)[C@]2(O)C[C@H](OC(=O)[C@H](O)[C@@H](NC(=O)OC(C)(C)C)c3ccccc3)C(C)=C1C2(C)C` [cabazitaxel], the “solubility in the infusion solution” value in data set [2] (5° C.) was 80 µg/mL (≈ 95.7 µM); in data set [2] (25° C.) it was 60 µg/mL (≈ 71.8 µM). The “solubility in the premix” value in data set [2] (Jevtana premix solution (cabazitaxel concentration 10 mg/mL)) is 3440 µg/mL (≈ 4120 µM). The solubility in water entry in data set [1] is “about 8 mg/L”.
In the case of `CCc1c2c(nc3ccc(O)cc13)-c1cc3c(c(=O)n1C2)COC(=O)[C@]3(O)CC` [SN-38], the “plasma protein binding (bound)” value in the data set on human plasma proteins (SN-38: human plasma proteins, mainly albumin) is given as “approximately 95%”. For the same molecule, in the data set on human plasma proteins (adults and pediatric patients, independent of serum albumin levels), the “binding to plasma proteins” value was 94-96%. Besides, the “bound, mainly to albumin and lymphocytes, also erythrocytes and neutrophils” value in data set [3] was “at least 99%”. Also, the urinary excretion in data set [4] was below 1%. The “potency as inhibitor of topoisomerase I relative to irinotecan” value in data set [5] was “approximately 1000 times”.
`CC(=O)O[C@H]1C(=O)[C@@]2(C)[C@H]([C@H](OC(=O)c3ccccc3)[C@]3(O)C[C@H](OC(=O)[C@H](O)[C@@H](NC(=O)c4ccccc4)c4ccccc4)C(C)=C1C3(C)C)[C@]1(OC(C)=O)CO[C@@H]1C[C@@H]2O` [paclitaxel]: the solubility in water entry in data set [1] is “about 0.4 mg/L”.
For the molecule `C/C(=C\c1csc(C)n1)[C@@H]1C[C@@H]2O[C@]2(C)CCC[C@H](C)[C@H](O)[C@@H](C)C(=O)C(C)(C)[C@@H](O)CC(=O)N1` [Ixabepilone], the solubility in water entry in data set [1] is reported as “about 3.5 mg/L”.
As to `Nc1ccn([C@@H]2O[C@H](CO)[C@@H](O)C2(F)F)c(=O)n1` [Gemcytabine, Gemcitabine], in data set [6], the “tumor regression, mean tumor weight on last day of study compared to Day 1” value was found to be 73%.
As to `CCc1c2c(nc3ccc(O[C@@H]4O[C@H](C(=O)O)[C@@H](O)[C@H](O)[C@H]4O)cc13)-c1cc3c(c(=O)n1C2)COC(=O)[C@]3(O)CC` [SN-38 glucuronide], the urinary excretion in data set [4] is given as 3%.
In the case of `CCc1c2c(nc3ccc(OC(=O)N4CCC(N5CCCCC5)CC4)cc13)-c1cc3c(c(=O)n1C2)COC(=O)[C@]3(O)CC` [irinotecan], in data set [3], the “bound to and/or localized in erythrocytes” value is given as 80%.

(Values after US20190110993A1, “Solid Nanoparticle Formulation of Water Insoluble Pharmaceutical Substances with Reduced Ostwald Ripening” (priority 2017, published 2019).)
